From US12304933B2, “Disease treatment drug based on mesenchymal-stem-cell mobilization” (StemRIM Inc., priority 2018, dated 2025)

How the values were obtained:
psoriasis model mice = assay: Auricular thickness in imiquimod-induced psoriasis model mice; type: in vivo, C57BL/6 mice; settings: 5% imiquimod cream on auricular skin once a day for seven days; 5 mg/kg/day peptide into tail vein for seven days; n=4; FIG. 9
Description: To induce psoriasis by imiquimod, a cream containing 5% imiquimod (Beseruna cream 5%, Mochida Pharmaceutical Co., Ltd.) was used. In the drawing corresponding to the Example of the present application, imiquimod is referred to as IMQ. In addition, the peptide NP-3 (TFA salt) described in Example 1 was used as a test substance.
C57BL/6 mice (7 weeks old, female, body weight about 20 g) were prepared. To induce psoriasis, a cream containing 5% imiquimod was applied on the auricular skin of the mice at an amount of 25 mg/ear/day (1.25 mg/ear/day imiquimod) once a day for seven days. Moreover, mice without imiquimod application (hereinafter, referred to as “normal mice”) were used as a comparison target.
The psoriasis model mice prepared as described above were divided into a peptide-administered group (n=4) and a control group (n=4). […]
During the test period, the auricle thickness of mice was measured daily using a micrometer (manufactured by Mitutoyo Co., Ltd., Product No. CLM1-15QM), and the size of change from the auricle thickness before the start of imiquimod application (Day 0) was calculated. The degree of skin thickening was evaluated using the size of change as an index.

[1] = tested on: mesenchymal stem cells in peripheral blood; assay: Solid-phase culture of peripheral blood after administration of HMGB1 peptide 1-44 (earlier experiments of the inventors); type: in vivo
Text: In addition, the colonies obtained as a result of culturing, on a solid phase, peripheral blood after administration of a peptide consisting of amino acid residues 1-44 of the human HMGB1 protein (hereinafter, HMGB1 peptide 1-44), which has an activity of mobilizing mesenchymal stem cells into peripheral blood, have been confirmed to have adherability to solid phase and self-renewal ability, and to be PDGFRα positive. They have also been confirmed to have a gene expression profile characteristic to mesenchymal stem cells, based on the results of clustering the transcriptome analysis data and performing gene ontology analysis.
Furthermore, it has been confirmed that the number of colonies obtained by solid-phase culture is larger in the peripheral blood after administration of HMGB1 peptide 1-44 than in the peripheral blood after administration of physiological saline.

Substance	increase in auricular thickness as compared with the control group (psoriasis model mice)	number of colonies obtained by solid-phase culture of peripheral blood, compared with peripheral blood after administration of physiological saline [1]
NP-3: Chemically synthesized fragment peptide of mouse YBX1 protein, positions 174-203, SEQ ID NO: 37 (SAPEGQAQQRRPYRRRRFPPYYMRRPYARR; listed as Mus musculus)	suppressed	
HMGB1 peptide 1-44: peptide consisting of amino acid residues 1-44 of the human HMGB1 protein, which has an activity of mobilizing mesenchymal stem cells into peripheral blood (MGKGDPKKPRGKMSSYAFFVQTCREEHKKKHPDASVNFSEFSKK; UniProt P09429 1-44, looked up, fragment)		larger
